Measurements taken from US8470851B2, “Substituted acetylenic imidazo[1,2-A]pyridine compounds as kinase inhibitors” (ARIAD Pharmaceuticals, Inc., priority 2005, dated 2013).

Biological target: T1, BaF3 cells transfected with the Bcr-Abl T315I mutant (Homo sapiens, UniProt P00519, T315I, cells depend on it)
T1 construct: fused on or other part: P11274 (Breakpoint cluster region protein)
Test: Ba/F3 cell proliferation assay, Bcr-Abl T315I (CellTiter 96 AQueous One);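 also: murine pro-B Ba/F3 line, tetrazolium turned into formazan and read by absorbance, compound dilution series, values as percent of DMSO-treated control, IC50 from fitted curves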
Type: cell-based, murine
Details: Ba/F3 cells expressing Bcr-Abl T315I, 3 days incubation; read-out: T315l cell proliferation
Text: More specifically, the cell proliferation assay we currently perform is using CellTiter 96 AQueous One Solution Cell Proliferation assay kit (Promaga, Cat#G3581). This assay is a colorimetric method for determining the number of alive cells in proliferation or cytotoxicity assays. The assay utilizing terazolium salts detect cell proliferation by detecting the product of the enzymatic conversion of the tetrazolium salts into blue formazan derivatives, which can be measured by the absorbance at 490 nm in a plate reader, Wallac Victor^2V (Perkin Elmer).
An example of cell-based assay is shown as below. The cell lines used in the assay are Ba/F3, a murine pro-B cell line, which have been stably transfected with full-length wild-type Bcr-Abl or Bcr-Abl with various kinase domain point mutations (including T351I, Y253F, E255K, H396P, M351T etc) constructs. Parental Ba/F3 cell line is used as control. […] Parental Ba/F3 cells were culture in the same medium supplemented with 10 ng/ml IL-3.
The compounds are first dissolved and diluted in DMSO by preparation of 4-fold dilution; next equal volumes of compounds with DMSO are transferred to medium and then transferred to cell plates. The final compound concentrations start from 10 μM to 6 nM. DMSO at same percentage is used as control. […] Basically, the tetrazolium salts are added to the incubated cultured cells to allow enzymatic conversion to the detectable product by active cells. Cells are processed, and the optical density of the cells is determined to measure the amount of formazan derivatives. Mean+/−SD are generated from duplicated wells and reported as the percentage absorbance of control. IC50s are calculated in best-fit curves using Micorsoft Excel-fit software.

SMILES	GI50
Cc1ccc(C(=O)Nc2ccc(CN3CCNCC3)c(C(F)(F)F)c2)cc1C#Cc1cnc2cnccn12	< 1000 nM
Cc1ccc(C(=O)Nc2cc(C(F)(F)F)ccn2)cc1C#Cc1cnc2c(NC(N)=O)cccn12	< 1000 nM
CN1CCN(Cc2ccc(NC(=O)c3ccc(F)c(C#Cc4cnc5cnccn45)c3)cc2C(F)(F)F)CC1	< 1000 nM
CCN1CCN(Cc2ccc(NC(=O)c3ccc(C)c(C#Cc4cnc5cnccn45)c3)cc2C(F)(F)F)CC1	< 1000 nM
Cc1ccc(C(=O)Nc2ccc(CN3CCN(C)CC3)c(C(F)(F)F)c2)cc1C#Cc1cnn2c(N)ncnc12	< 1000 nM
Cc1ccc(C(=O)Nc2ccc(CN3CCN(C(C)C)CC3)c(C(F)(F)F)c2)cc1C#Cc1cnc2cnccn12	< 1000 nM
CNC(=O)Nc1cccn2c(C#Cc3cc(C(=O)Nc4cc(C(F)(F)F)ccn4)ccc3C)cnc12	< 1000 nM
Cc1ccc(C(=O)Nc2cc(C(C)(C)C)on2)cc1C#Cc1cnc2c(NC(N)=O)cccn12	< 1000 nM
Cc1ccc(C(=O)Nc2cc(-n3ccnc3)cc(C(F)(F)F)c2)cc1C#Cc1cnc2c(NC(N)=O)cccn12	< 1000 nM
CN1CCN(Cc2ccc(NC(=O)c3ccc(Cl)c(C#Cc4cnc5ccccn45)c3)cc2C(F)(F)F)CC1	< 1000 nM
Cc1ccc(C(=O)Nc2cc(C(F)(F)F)ccn2)cc1C#Cc1cnc2c(NC(=O)N(C)C)cccn12	< 1000 nM
Cc1ccc(C(=O)Nc2cc(C(F)(F)F)ccn2)cc1C#Cc1cnc2c(NC(=O)C3CC3)cccn12	< 1000 nM
CN1CCN(Cc2ccc(NC(=O)c3ccc(F)c(C#Cc4cnc5ccccn45)c3)cc2C(F)(F)F)CC1	< 1000 nM
COC(=O)Nc1cccn2c(C#Cc3cc(C(=O)Nc4cc(C(F)(F)F)ccn4)ccc3C)cnc12	< 1000 nM
Cc1ccc(C(=O)Nc2cc(-n3ccnc3)cc(C(F)(F)F)c2)cc1C#Cc1cnc2c(NC(=O)OC(C)(C)C)cccn12	< 1000 nM
Cc1ccc(C(=O)Nc2ccc(OC3CCN(C)CC3)c(C(F)(F)F)c2)cc1C#Cc1cnc2cnccn12	< 1000 nM
CN1CCN(Cc2ccc(NC(=O)c3cccc(C#Cc4cnc5ccccn45)c3)cc2C(F)(F)F)CC1	< 1000 nM
Cc1ccc(C(=O)Nc2cc(Cn3ccnc3)cc(C(F)(F)F)c2)cc1C#Cc1cnc2ccccn12	< 1000 nM
Cc1ccc(C(=O)Nc2cc(-n3ccnc3)cc(C(F)(F)F)c2)cc1C#Cc1cnn2cccnc12	< 1000 nM
Cc1ccc(C(=O)Nc2cc(Cn3ccnc3)cc(C(F)(F)F)c2)cc1C#Cc1cnc2cnccn12	< 1000 nM
CC(=O)Nc1cccn2c(C#Cc3cc(C(=O)Nc4cc(C(F)(F)F)ccn4)ccc3C)cnc12	< 1000 nM

SMILES	GI50
Cc1ccc(C(=O)Nc2cc(C(F)(F)F)ccn2)cc1C#Cc1cnc2c(Nc3ccc(S(N)(=O)=O)cc3)cccn12	< 1000 nM
CN1CCN(Cc2ccc(NC(=O)c3cccc(C#Cc4cnc5cnccn45)c3)cc2C(F)(F)F)CC1	< 1000 nM
Cc1ccc(C(=O)Nc2cc(-n3cnc(C#N)c3)cc(C(F)(F)F)c2)cc1C#Cc1cnc2cnccn12	< 1000 nM
Cc1ccc(C(=O)Nc2cc(-n3ccnc3)cc(C(F)(F)F)c2)cc1C#Cc1cnc2c(Nc3cccc(C(N)=O)c3)cccn12	< 1000 nM
Cc1ccc(C(=O)Nc2cc(C(F)(F)F)ccn2)cc1C#Cc1cnc2c(Nc3ccc(S(C)(=O)=O)cc3)cccn12	< 1000 nM
Cc1ccc(C(=O)Nc2cc(-n3cnc(CCN4CCCC4)c3)cc(C(F)(F)F)c2)cc1C#Cc1cnc2ccccn12	< 1000 nM
CC(C)N1CCN(Cc2ccc(NC(=O)c3cncc(C#Cc4cnc5cnccn45)c3)cc2C(F)(F)F)CC1	< 1000 nM
Cc1ccc(C(=O)Nc2cc(-n3ccnc3CN(C)C)cc(C(F)(F)F)c2)cc1C#Cc1cnc2cnccn12	< 1000 nM
Cc1ccc(C(=O)Nc2ccc(CN3CCC(N(C)C)CC3)c(C(F)(F)F)c2)cc1C#Cc1cnc2cnccn12	< 1000 nM
Cc1ccc(C(=O)Nc2cc(-n3ccnc3)cc(C(F)(F)F)c2)cc1C#Cc1cnc2cnccn12	< 1000 nM
CC(C)N1CCN(Cc2ccc(NC(=O)c3cccc(C#Cc4cnc5cnccn45)c3)cc2C(F)(F)F)CC1	< 1000 nM
Cc1ccc(C(=O)Nc2cc(CN3CCCC3)cc(C(F)(F)F)c2)cc1C#Cc1cnc2cnccn12	< 1000 nM
Cc1cn(-c2cc(NC(=O)c3ccc(C)c(C#Cc4cnc5ccccn45)c3)cc(C(F)(F)F)c2)cn1	< 1000 nM
Cc1ccc(C(=O)Nc2ccc(CN3CCN(C)CC3)c(C(F)(F)F)c2)cc1C#Cc1cnn2cccnc12	< 1000 nM
CN1CCN(Cc2ccc(NC(=O)c3ccc(C#Cc4cnc5ccccn45)o3)cc2C(F)(F)F)CC1	< 1000 nM
Cc1ccc(C(=O)Nc2ccc(CN3CCNC(=O)C3)c(C(F)(F)F)c2)cc1C#Cc1cnc2ccccn12	< 1000 nM
Cc1ccc(C(=O)Nc2cc(-n3cnc(C#N)c3)cc(C(F)(F)F)c2)cc1C#Cc1cnc2ccccn12	< 1000 nM
Cc1ccc(C(=O)Nc2cc(-n3cnc(CN4CCCC4)c3)cc(C(F)(F)F)c2)cc1C#Cc1cnc2cnccn12	< 1000 nM
Cc1ccc(C(=O)Nc2ccc(CN3CCC(N(C)C)CC3)c(C(F)(F)F)c2)cc1C#Cc1cnc2ccccn12	< 1000 nM
CN1CCN(Cc2ccc(C(=O)Nc3cccc(C#Cc4cnc5cnccn45)c3)cc2C(F)(F)F)CC1	< 1000 nM
Cc1ccc(C(=O)Nc2cc(C(C)(C)C)on2)cc1C#Cn1cnc2c(NC3CC3)ncnc21	< 1000 nM

SMILES	GI50
Cc1ccc(C(=O)Nc2cc(C(F)(F)F)ccn2)cc1C#Cc1cnn2cccnc12	< 1000 nM
Cc1ccc(C(=O)Nc2ccc(CN3CCOCC3)c(C(F)(F)F)c2)cc1C#Cc1cnc2cnccn12	< 1000 nM
Cc1ccc(C(=O)Nc2cc(C(F)(F)F)ccn2)cc1C#Cc1cnc2c(N)cccn12	< 1000 nM
Cc1ccc(C(=O)Nc2cc(CN3CCCC3)cc(C(F)(F)F)c2)cc1C#Cc1cnc2ccccn12	< 1000 nM
Cc1ccc(C(=O)Nc2cc(CN3CCOCC3)cc(C(F)(F)F)c2)cc1C#Cc1cnc2cnccn12	< 1000 nM
Cc1ccc(C(=O)Nc2ccc(CN3CCCC3)c(C(F)(F)F)c2)cc1C#Cc1cnc2cnccn12	< 1000 nM
Cc1ccc(C(=O)Nc2ccc(Cn3ccnc3)c(C(F)(F)F)c2)cc1C#Cc1cnc2cnccn12	< 1000 nM
Cc1ccc(C(=O)Nc2cc(C(F)(F)F)ccn2)cc1C#Cc1cnn2c(N)ncnc12	< 1000 nM
Cc1ccc(C(=O)Nc2ccc(Cn3ccnc3)c(C(F)(F)F)c2)cc1C#Cc1cnc2ccccn12	< 1000 nM
Cc1ccc(C(=O)Nc2cc(CN3CCOCC3)cc(C(F)(F)F)c2)cc1C#Cc1cnc2ccccn12	< 1000 nM
CC(=O)Nc1cccn2c(C#Cc3cc(C(=O)Nc4cccc(C(F)(F)F)c4)ccc3C)cnc12	< 1000 nM
Cc1ccc(C(=O)Nc2cc(-n3cnc(CCN4CCCC4)c3)cc(C(F)(F)F)c2)cc1C#Cc1cnc2cnccn12	< 1000 nM
CC(=O)Nc1ncnc2c(C#Cc3cc(C(=O)Nc4cc(C(F)(F)F)ccn4)ccc3C)cnn12	< 1000 nM
Cc1ccc(C(=O)Nc2cc(C(F)(F)F)ccn2)cc1C#Cc1cnc2c(NC(=O)C3CCC3)cccn12	< 1000 nM
CC(C)(C)c1cc(NC(=O)c2cccc(C#Cc3cnc4ccccn34)c2)no1	< 1000 nM
Cc1ccc(C(=O)Nc2ccc(CN3CC[C@@H](N(C)C)C3)c(C(F)(F)F)c2)cc1C#Cc1cnc2cccnn12 (racemic)	< 1000 nM
Cc1ccc(C(=O)Nc2ccc(CN3CC[C@@H](O)C3)c(C(F)(F)F)c2)cc1C#Cc1cnc2ccccn12 (racemic)	< 1000 nM
Cc1ccc(C(=O)Nc2ccc(CN3CC[C@@H](N(C)C)C3)c(C(F)(F)F)c2)cc1C#Cc1cnc2cnccn12 (stereo in doubt)	< 1000 nM
Cc1ccc(C(=O)Nc2ccc(CN3CC[C@H](N(C)C)C3)c(C(F)(F)F)c2)cc1C#Cc1cnc2cnccn12 (stereo in doubt)	< 1000 nM
